Measurements published in patent publication US20070238141A1, “Method for measuring kinase activity” (SYSMEX CORPORATION, priority 2006, published 2007).

Columns and labels:
Assay type in all cases: biochemical, human
[1] = system: receptor tyrosine kinase present in a cell membrane of SKBr3; assay: Influence of inhibitor on kinase activity of receptor tyrosine kinase, GST-poly (Glu,Tyr) substrate, Western blotting, sample iii; settings: reaction solution containing 100 μM inhibitor, C (no inhibitor) = 100%, FIG. 10
Procedure: (§1) A culturing cell (MDA-MB231) derived from a breast cancer was cultured to 80% confluent (about 10^7 cells) in a 225 cm^2 flask. This cultured cell and 1 ml of a cell treating solution (containing 20 mM HEPES pH7.4, 0.2% PI, 10% glycerol, 200 μM Na3VO4, and 50 mM NaF) were mixed, and a cell membrane was destructed by pressurizing using a pestle to prepare a cell solution. The resulting cell solution was centrifuged, and the supernatant was discarded. A precipitate and a cell membrane solubilizing solution (containing 20 mM HEPES pH7.4, 1% NP40, 0.2% PI, 10% glycerol, 200 μM Na3VO4, and 50 mM NaF) were mixed, a cell membrane was solubilized by pressurizing using a pestle, and this was centrifuged to recover the supernatant. This supernatant was used as a sample for a reaction in the following enzyme reaction. Similarly, a sample for a reaction solution was prepared from MDA-MB468 and SKBr3 which are a cultured cell derived from a breast cancer, respectively. Herein, a sample prepared from MDA-MB231 is designated as a sample for reaction “i”, a sample prepared from MDA-MB468 is designated as a sample for reaction “ii”, and a sample prepared from SKBr3 is designated as a sample for reaction “iii”. All samples for a reaction were prepared so that a concentration of a contained protein became 0.8 mg/ml.
(§2) Each 25μ of samples for a reaction were accommodated in four tubes. […]
(§3) Using these “PD”, “W”, “AG” and “C”, Western blotting was performed according to the same method as that of Example 6. Results are shown by a graph in which a fluorescent intensity of a band of a phosphorylated GST-poly (Glu,Tyr) fused protein detected in a fluorescent photograph of Western blotting was digitalized using an exclusive use analyzing software. […]

[2] = system: receptor tyrosine kinase present in a cell membrane of MDA-MB231; assay: Influence of inhibitor on kinase activity of receptor tyrosine kinase, GST-poly (Glu,Tyr) substrate, Western blotting, sample i; settings: reaction solution containing 100 μM inhibitor, C (no inhibitor) = 100%, FIG. 8
Procedure: as §1, §2, §3

[3] = system: receptor tyrosine kinase present in a cell membrane of MDA-MB468; assay: Influence of inhibitor on kinase activity of receptor tyrosine kinase, GST-poly (Glu,Tyr) substrate, Western blotting, sample ii; settings: reaction solution containing 100 μM inhibitor, C (no inhibitor) = 100%, FIG. 9
Procedure: as §1, §2, §3

[4] = system: receptor tyrosine kinase present in a cell membrane of SKBr3; assay: Influence of ligand on kinase activity of receptor tyrosine kinase, GST-poly (Glu,Tyr) substrate, Western blotting; settings: reaction solution containing 100 ng of Heregulin (H) vs no ligand (C); SKBr3 membrane sample; FIG. 11
Procedure: A culturing cell (MDA-MB231) derived from a breast cancer was cultured to 80% confluent (about 10^7 cells) in a 225 cm^2 flask. This cultured cell and 1 ml of a cell treating solution (containing 20 mM HEPES pH7.4, 0.2% PI, 10% glycerol, 200 μM Na3VO4, and 50 mM NaF) were mixed, and a cell membrane was destructed by pressurizing using a pestle to prepare a cell solution. The resulting cell solution was centrifuged, and the supernatant was discarded. A precipitate and a cell membrane solubilizing solution (containing 20 mM HEPES pH7.4, 1% NP40, 0.2% PI, 10% glycerol, 200 μM Na3VO4, and 50 mM NaF) were mixed, a cell membrane was solubilized by pressurizing using a pestle, and this was centrifuged to recover the supernatant. This supernatant was used as a sample for a reaction in the following enzyme reaction. Similarly, a sample for a reaction solution was prepared from MDA-MB468 and SKBr3 which are a cultured cell derived from a breast cancer, respectively. […]
Using these “H” and “C”, Western blotting was performed according to the same method as that of Example 6. And, a fluorescent intensity of a band of a phosphorylated GST-poly (Glu,Tyr) fused protein detected in a fluorescent photograph was digitalized using an exclusive use analyzing software. […]

Compound: COc1cc2ncnc(Nc3ccc(OCc4ccccc4)cc3)c2cc1OC [W4557]
- fluorescent intensity of band of phosphorylated GST-poly (Glu,Tyr) fused protein compared with C [1]: reduced
- fluorescent intensity of band of phosphorylated GST-poly (Glu,Tyr) fused protein compared with C [2]: not inhibited
- fluorescent intensity of band of phosphorylated GST-poly (Glu,Tyr) fused protein compared with C [3]: reduced

Compound: Heregulin
- fluorescent intensity of band of phosphorylated GST-poly (Glu,Tyr) fused protein compared with C [4]: higher

Compound: CNc1cc2c(Nc3cccc(Br)c3)ncnc2cn1 [PD158780]
- fluorescent intensity of band of phosphorylated GST-poly (Glu,Tyr) fused protein compared with C [1]: reduced
- fluorescent intensity of band of phosphorylated GST-poly (Glu,Tyr) fused protein compared with C [2]: not inhibited
- fluorescent intensity of band of phosphorylated GST-poly (Glu,Tyr) fused protein compared with C [3]: reduced

Compound: COc1cc2ncnc(Nc3cccc(Cl)c3)c2cc1OC [AG1478]
- fluorescent intensity of band of phosphorylated GST-poly (Glu,Tyr) fused protein compared with C [1]: reduced
- fluorescent intensity of band of phosphorylated GST-poly (Glu,Tyr) fused protein compared with C [2]: not inhibited
- fluorescent intensity of band of phosphorylated GST-poly (Glu,Tyr) fused protein compared with C [3]: reduced
